Assay results taken from patent US8309545B2, “Benzofuran potassium channel blockers and uses thereof” (Bionomics Limited, priority 2006, dated 2012).

The compounds below were run against T1, human Kv1.3 ion channel (Homo sapiens, UniProt P22001) (assay: Inhibition of Kv1.3 currents, planar patch clamp in Jurkat cells). Conditions: Human Jurkat cells (endogenous hKv1.3), averaged dose response data from 3 or more cells.
T1 construct: Human Jurkat cells (which endogenously express hKv1.3) were used in place of rat L929 cells; endogenous in cells; host or cells: Human Jurkat cells
T1 sequence (P22001 whole entry): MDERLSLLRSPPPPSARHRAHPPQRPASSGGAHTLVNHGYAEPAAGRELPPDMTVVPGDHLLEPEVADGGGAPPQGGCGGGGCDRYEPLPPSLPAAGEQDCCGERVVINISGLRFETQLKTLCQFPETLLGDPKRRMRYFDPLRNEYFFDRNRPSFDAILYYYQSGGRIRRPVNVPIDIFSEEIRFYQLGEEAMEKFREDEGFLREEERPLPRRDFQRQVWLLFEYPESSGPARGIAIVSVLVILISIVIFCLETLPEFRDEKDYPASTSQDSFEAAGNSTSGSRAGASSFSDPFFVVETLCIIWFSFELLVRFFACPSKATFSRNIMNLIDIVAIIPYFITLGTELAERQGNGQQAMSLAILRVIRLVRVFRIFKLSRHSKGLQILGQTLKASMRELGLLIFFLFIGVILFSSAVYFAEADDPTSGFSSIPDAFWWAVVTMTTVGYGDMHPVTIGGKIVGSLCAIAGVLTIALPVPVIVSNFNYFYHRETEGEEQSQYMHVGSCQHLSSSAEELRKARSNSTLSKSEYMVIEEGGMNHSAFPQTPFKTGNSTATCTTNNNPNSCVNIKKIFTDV
Type: cell-based
Protocol: Potency of compounds to inhibit the human Kv1.3 ion channel were determined as follows:
EC50 values for inhibition of Kv1.3 currents were determined by the method according to Schmitz et al (2005) Molecular Pharmacology 68, 1254-1270 with the following differences: • 1. Human Jurkat cells (which endogenously express hKv1.3) were used in place of rat L929 cells. • 2. All electrophysiology was performed using planar patch clamp (Port-A-Patch, Nanion Technologies Gmbh, Munich) in contrast to conventional patch clamp. • 3. EC50 values shown were determined from averaged dose response data obtained from 3 or more cells.

Row | Structure (SMILES) | EC50 [nM]
1 | CC(=O)c1c(OCCNCCO)c(OCCCc2ccccc2)c2occc2c1C [Example 39, 5-Acetyl-6-(2-(2-Hydroxy-ethylamino)-ethoxy)-4-methyl-7-(3-phenylpropoxy)-benzofuran] | 576
2 | CC(=O)c1c(OCCN2CCN(C)CC2)c(OCCCc2ccccc2)c2occc2c1C [Example 26] | 140
3 | CC(=O)c1c(O)c(OCCC(C)c2ccccc2)c2occc2c1C (stereo not drawn) [Example 50a, 1-[6-Hydroxy-4-methyl-7-(3-RS-phenylbutoxy)-benzofuran-5-yl]-ethanone] | 423
4 | CC(=O)c1cc2ccoc2c(OCCCc2ccccc2)c1OCCN1CCOCC1 [22 c)] | 610
5 | CC(=O)c1c(OCCc2ccccn2)c(OCCC(C)c2ccc(F)cc2)c2occc2c1C (stereo not drawn) [Example 44d, 5-Acetyl-7-(3-[4-fluorophenyl]butoxy)-4-methyl-6-(2-pyridin-2-yl-ethoxy)benzofuran] | 22
6 | CC(=O)c1cc2ccoc2cc1OCCCc1ccccc1 [Example 3, 5-Acetyl-6-(3-phenylpropoxy)benzofuran] | 184
7 | CC(=O)c1c(OCCCCn2ccnc2)c(OCCCc2ccccc2)c2occc2c1C [Example 30, 5-Acetyl-6-(4-imidazol-1-yl-butoxy)-4-methyl-7-(3-phenylpropoxy)-benzofuran] | 120
8 | COc1c(C(C)=O)c(OCCN(C)C)c(OCCCc2ccccc2)c2occc12 [15 b)] | 160
9 | CC(=O)c1c(OCCN2CCOCC2)c(OCC#Cc2ccccc2)c2occc2c1C [Example 60c, 1-[4-Methyl-6-(2-morpholin-4-yl-ethoxy)-7-(3-phenyl-prop-2-ynyloxy)-benzofuran-5-yl]-ethanone] | 331
10 | COc1c(C(C)=O)c(OCCN2CCOCC2)c(OCCCc2ccccc2)c2occc12 [Example 16, 5-Acetyl-6-(2-morpholinoethoxy)-4-methoxy-7-(3-phenylpropoxy)benzofuran] | 110
11 | CC(=O)c1c(OCCN(C)C)cc2occc2c1OCCCCOc1ccccc1 [Example 25, 5-Acetyl-6-(2-dimethylamino-ethoxy)-4-(4-phenoxybutoxy)benzofuran] | 600
12 | COc1c(C(C)=O)c(OCCCc2ccccc2)c(OC)c2occc12 [Example 1, 5-Acetyl-4,7-dimethoxy-6-(3-(phenyl)propoxy)benzofuran] | 290
13 | CC(=O)c1c(OCCNC2CCCC2)c(OCCC(C)c2ccccc2)c2occc2c1C (stereo not drawn) [Example 53, 1-[6-(2-Cyclopentylamino-ethoxy)-4-methyl-7-(3-phenyl-butoxy)-benzofuran-5-yl]-ethanone] | 23
14 | CC(=O)c1c(C)c2c(c(OCCCc3ccccc3)c1OCCN1CCOCC1)OCC2 [Example 65, 5-Acetyl-6-(2-morpholinoethoxy)-4-methyl-7-(3-phenylpropoxy)-2,3-dihydrobenzofuran] | 200
15 | COc1c2occc2c(C)c2c(=O)cc(C)oc12 [4 a)] | 790
16 | CC(=O)c1c(OCCc2nnn[nH]2)c(OCCCc2ccccc2)c2occc2c1C [Example 55, 5-Acetyl-6-(3-(1H-tetrazol-5-yl)-ethoxy)-4-methyl-7-(3-phenylpropoxy)benzofuran] | 6600
17 | COc1c(C(C)=O)c(OCCCc2ccccc2)c(CN(C)C)c2occc12 [13 b)] | 480
18 | COc1c(OCCCc2ccccc2)c(C(C)=O)c(C)c2ccoc12 [4 c)] | 225
19 | COc1c(C(C)=O)c(OCCCS(=O)(=O)c2ccccc2)c(OC)c2occc12 [Example 10, 5-Acetyl-4,7-dimethoxy-6-(3-(benzenesulfonyl)propoxy)benzofuran] | 1510
20 | CC(=O)c1c(OCCCn2ccnc2)c(OCCCc2ccccc2)c2occc2c1C [Example 29, 5-Acetyl-6-(3-imidazol-1-yl-propoxy)-4-methyl-7-(3-phenylpropoxy)-benzofuran] | 136
21 | CC(=O)c1c(O)c(OC[C@H]2C[C@@H]2c2ccccc2)c2occc2c1C (racemic) [Example 58b, rac-1-[6-Hydroxy-4-methyl-7-(1S,2S-2-phenyl-cyclopropylmethoxy)-benzofuran-5-yl]-ethanone] | 512
22 | CC(=O)c1c(OCCN2CCOCC2)c(OCCC(C)c2ccccc2)c2occc2c1C (stereo not drawn) [Example 50b, 1-[4-Methyl-6-(2-morpholin-4-yl-ethoxy)-7-(3-phenyl-butoxy)-benzofuran-5-yl]-ethanone] | 16
23 | COc1c(C(C)=O)c(OCCS(=O)(=O)c2ccccc2)c(OC)c2occc12 [Example 9, 5-Acetyl-4,7-dimethoxy-6-(2-(benzenesulfonyl)ethoxy)benzofuran] | 2420
24 | CC(=O)c1c(O)c(OCCOc2ccc(F)cc2)c2occc2c1C [Example 43c, 5-Acetyl-7-(2-(4-fluorophenoxy)-ethoxy)-6-hydroxy-4-methylbenzofuran] | 954
25 | COc1c(C(C)=O)c(OCCNc2ccccc2)c(OC)c2occc12 [Example 11, 5-Acetyl-4,7-dimethoxy-6-(2-(phenylamino)ethoxy)benzofuran] | 980
26 | CC(=O)c1c(OCCCCN2CCOCC2)c(OCCCc2ccccc2)c2occc2c1C [28 b)] | 640
27 | CC(=O)c1c(OCCN2CCOCC2)c(OCCCc2ccc(F)cc2)c2occc2c1C [Example 47b, 5-Acetyl-7-(3-(4-fluorophenyl)propoxy)-4-methyl-6-(2-morpholinoethoxy)benzofuran] | 74
28 | CC(=O)c1c(OCCN2CCOCC2)c(OCC[C@@H](C)c2ccccc2)c2occc2c1C [Example 51, 1-[4-Methyl-6-(2-morpholin-4-yl-ethoxy)-7-(3-phenyl-butoxy)-benzofuran-5-yl]-ethanone] | 18

Next, values leading:

Row | EC50 [nM] | Structure (SMILES)
29 | 340 | COc1c(C(C)=O)c(O)c(OCCNc2ccccc2)c2occc12 [Example 64c, 1-[6-Hydroxy-4-methoxy-7-(2-phenylamino-ethoxy)-benzofuran-5-yl]-ethanone]
30 | 600 | CC(=O)c1c(OCCN2CCOCC2)c(OC[C@H]2O[C@@H]2c2ccccc2)c2occc2c1C [Example 63, 1-[4-Methyl-6-(2-morpholin-4-yl-ethoxy)-7-(2R,3R-3-phenyl-oxiranylmethoxy)-benzofuran-5-yl]-ethanone]
31 | 165 | Cc1cc(=O)c2c(C)c3ccoc3c(OC[C@H]3C[C@@H]3c3ccccc3)c2o1 (racemic) [Example 58a, rac-4,7-Dimethyl-9-(1S,2S-2-phenyl-cyclopropylmethoxy)-furo[3,2-g]chromen-5-one]
32 | 750 | COc1c(C(C)=O)c(OCCCSc2ccccc2)c(OC)c2occc12 [Example 8, 5-Acetyl-4,7-dimethoxy-6-(3-(phenylthio)propoxy)benzofuran]
33 | 122 | CC(=O)c1c(OCCn2ccnn2)c(OCCCc2ccccc2)c2occc2c1C [Example 36, 1-[4-Methyl-7-(3-phenyl-propoxy)-6-(2-[1,2,3]triazol-1-yl-ethoxy)-benzofuran-5-yl]-ethanone]
34 | 910 | COc1c(C(C)=O)c(OCCCCOc2ccccc2)c(OCCN2CCOCC2)c2occc12 [14 c)]
35 | 81 | COc1c(C(C)=O)c(OCCn2ccnc2)c(OCCCc2ccccc2)c2occc12 [Example 17, 5-Acetyl-6-(2-imidazol-1-ylethoxy)-4-methoxy-7-(3-phenylpropoxy)benzofuran]
36 | 880 | COc1c(C(C)=O)c(OCCOc2ccccc2)c(OC)c2occc12 [5 b)]
37 | 221 | CC(=O)c1c(OCCN2CCOCC2)c(OC/C=C/c2ccccc2)c2occc2c1C [Example 61, 1-[4-Methyl-6-(2-morpholin-4-yl-ethoxy)-7-(E-3-phenyl-allyloxy)-benzofuran-5-yl]-ethanone]
38 | 420 | CC(=O)c1c(OCCN(C)C)c(OCCCc2ccccc2)c2occc2c1C [18 c)]
39 | 480 | CC(=O)c1c(OCC(=O)N2CCOCC2)c(OCCCc2ccccc2)c2occc2c1C [Example 42, 2-[5-Acetyl-4-methyl-7-(3-phenyl-propoxy)-benzofuran-6-yloxy]-1-morpholin-4-yl-ethanone]
40 | 223 | CC(=O)c1c(OCCN2CCCC2)c(OCCCc2ccccc2)c2occc2c1C [Example 34, 1-[4-Methyl-7-(3-phenyl-propoxy)-6-(2-pyrrolidin-1-yl-ethoxy)-benzofuran-5-yl]-ethanone]
41 | 720 | COc1c(C(C)=O)c(OCCCOc2ccccc2)c(OC)c2occc12 [6 b)]
42 | 23 | CC(=O)c1c(OCCn2nnc(N)n2)c(OCCCc2ccccc2)c2occc2c1C [21 a)]
43 | 286 | CC(=O)c1c(OCCN2CCOCC2)c(OCCOc2ccc(F)cc2)c2occc2c1C [Example 43e, 1-[7-[2-(4-Fluoro-phenoxy)-ethoxy]-4-methyl-6-(2-morpholin-4-yl-ethoxy)-benzofuran-5-yl]-ethanone]
44 | 215 | Cc1cc(=O)c2c(C)c3ccoc3c(OC[C@H]3C[C@H]3c3ccccc3)c2o1 (racemic) [Example 59a, rac-4,7-Dimethyl-9-(1S,2R-2-phenyl-cyclopropylmethoxy)-furo[3,2-g]chromen-5-one]
45 | 159 | CC(=O)c1c(OCCN2CCOCC2)c(OC(C)CCc2ccccc2)c2occc2c1C (stereo not drawn) [Example 57b, 1-[4-Methyl-7-(1-RS-methyl-3-phenyl-propoxy)-6-(2-morpholin-4-yl-ethoxy)-benzofuran-5-yl]-ethanone]
46 | 215 | CC(=O)c1c(OCCN2CCOCC2)c(OCCCc2ccccc2)c2oc(Cl)cc2c1C [Example 41, 1-[2-Chloro-4-methyl-6-(2-morpholin-4-yl-ethoxy)-7-(3-phenyl-propoxy)-benzofuran-5-yl]-ethanone]
47 | 531 | CC(=O)c1c(O)c(OCCCc2ccc(F)cc2)c2occc2c1C [Example 47a, 5-Acetyl-7-(3-(4-fluorophenyl)propoxy)-6-hydroxy-4-methylbenzofuran]
48 | 174 | CC(=O)c1c(OCCN2CCOCC2)cc2occc2c1OCCCCOc1ccccc1 [23 d)]
